Test results published in patent US10357514B2, “Treatment of cancer using anti-CD19 Chimeric Antigen Receptor” (The Trustees of the University of Pennsylvania, priority 2014, dated 2019).

Columns and labels:
[1] = mice; cited from earlier work
MCL = conditions: cited from earlier work
Nalm/6 cells = test: Nalm/6 tumor model in NSG mice; type: in vivo
Experimental: CART19 function was assessed in an in vivo mouse model. Nalm/6 cells (human acute lymphoblastic leukemia cell line) were implanted into NSG mice, and the mice were monitored daily for at least 50 days. […] CART19 was administered on day 7 or day 9, or mice were left untreated (control). […] For example, the cells were stained with anti-human CD19 antibody to determine the percent of human CD19+(Nalm/6) cells in the blood of the tumor-bearing NSG mice.

Mino = test: MTT assay, ibrutinib inhibition of proliferation; type: cell-based; conditions: Homo sapiens
Jeko-1 = test: MTT assay, ibrutinib inhibition of proliferation; type: cell-based; conditions: Homo sapiens
JEKO-1 cells = test: Ibrutinib sensitivity by reduction of bioluminescence (BLI); type: cell-based, human; conditions: 0.1 nM to 10 μM
PBMCs = test: CAR19 lentiviral transduction of ibrutinib-treated normal donor PBMCs; type: cell-based, human; conditions: PBMCs incubated with 5 μM ibrutinib for 30 minutes
Experimental: Normal donor PBMCs were obtained using apheresis as described herein, for example in Example 6. […] The cells were then transduced with lentiviral constructs containing CAR19 to generate CART19 T cells using the methods described herein, for example, in Example 4. The number of CART19 T cells generated from ibrutinib-treated PBMCs FACs analysis was performed to determine the number of CART19 T cells generated from ibrutinib-treated PBMCs compared to untreated PBMCs.

CART19 T cells = conditions: 0.1, 0.5, 1 and 5 μM ibrutinib
RL cells = test: Ibrutinib sensitivity by reduction of bioluminescence (BLI); type: cell-based, human; conditions: 0.1 nM to 10 μM
MCL-RL cells = test: MCL-RL xenograft model in NSG mice; type: in vivo
Experimental: NOD-SCID-γ chain−/− (NSG) mice originally obtained from Jackson Laboratories were purchased from the Stem Cell and Xenograft Core of the University of Pennsylvania. All experiments were performed on protocols approved by the Institutional Animal Care and Use Committee (IACUC). Schematics of the utilized xenograft models are discussed herein. Cells (MCL cell lines or T cells) were injected in 200 ul of PBS at the indicated concentration into the tail veins of mice. Bioluminescent imaging was performed using a Xenogen IVIS-200 Spectrum camera and analyzed with LivingImage software v. 4.3.1 (Caliper LifeSciencies). Animals were euthanized at the end of the experiment or when they met pre-specified endpoints according to the IACUC protocols.
Schematics such as those shown in FIGS. 20, 55, and 5A were used in this example. […] 1×10^6 cells from RL (MCL-3), JEKO-1 (MCL-4), and NALM6 (MCL-5) cell lines are injected in NSG mice (20 mice for each experiment). […] At Day 7, Day 14, Day 21, and Day 28, the bioluminescence is imaged to monitor tumor size. […] Survival of the mice is also monitored. […] 2×10^6 MCL-RL cells are injected into NSG mice. […] At days 14, 21, 28, and 35 (after injection of MCL-RL cells), the bioluminescence is imaged to monitor tumor size.
Mean bioluminescence, representing tumor growth, was assessed at various timepoints.

RL = test: MTT assay, ibrutinib inhibition of proliferation; type: cell-based; conditions: Homo sapiens
[2] = tested on: luciferase-expressing mantle cell line (RL luc); test: Lymphoma xenograft model, tumor burden by mean bioluminescence; type: in vivo, NSG mice; conditions: 200 ng/mouse i.p. three times weekly from Day 85, mice with suboptimal response to CART19
Source text: Tumor size was monitored by measuring the mean bioluminescence of the engrafted tumors over more than 80 days. […] When comparing the tumor burden of mice that received IL-7 treatment to control, before and after IL-7 treatment, tumor reduction in tumor burden was only seen in the mice that had received IL-7 treatment (FIG. 49C).

In the case of `CO[C@H]1C[C@@H]2CC[C@@H](C)[C@@](O)(O2)C(=O)C(=O)N2CCCC[C@H]2C(=O)O[C@H]([C@H](C)C[C@@H]2CC[C@@H](O)[C@H](OC)C2)CC(=O)[C@H](C)/C=C(\C)[C@@H](O)[C@@H](OC)C(=O)[C@H](C)C[C@H](C)/C=C/C=C/C=C/1C` [rapamycin], the lifespan [1] is given as “extended lifespan”.

For `C=CC(=O)N1CCC[C@@H](n2nc(-c3ccc(Oc4ccccc4)cc3)c3c(N)ncnc32)C1` [ibrutinib, 1-[(3R)-3-[4-Amino-3-(4-phenoxyphenyl)-1H-pyrazolo[3,4-d]pyrimidin-1-yl]piperidin-1-yl]prop-2-en-1-one], the “patients who do not respond” value (MCL) is listed as “about 30%”, the “Nalm/6 cells circulating in peripheral blood” value (Nalm/6 cells; daily oral gavage from day 7, CART19 on day 7 or 9) is listed as “does not impair CART19 function in clearing Nalm/6 cells” and the “survival after injection of Nalm/6 cells” value (Nalm/6 cells; ibrutinib without CART19 T cells) is listed as at most 30 days. The IC50 (Mino) was at most 10 µM, the IC50 (Jeko-1) was at most 10 µM and the “sensitivity to ibrutinib (reduction of bioluminescence)” value (JEKO-1 cells) was “resistant”. The “transduced PBMCs expressing CAR19” value (PBMCs) was 15%, the “CD3/CD28-stimulated CART19 cell proliferation” value (CART19 T cells) was “did not affect CART19 cell proliferation” and the “sensitivity to ibrutinib (reduction of bioluminescence)” value (RL cells) was “sensitive”. The median overall survival (MCL-RL cells; 25 mg/kg/day) was 81 days, the median overall survival (MCL-RL cells; 125 mg/kg/day) was 100 days and the “tumor growth (mean bioluminescence)” value (MCL-RL cells; ibrutinib alone, 25 and 250 mg/kg/day) was “dose-related sensitivity”. For the same molecule, the “circulating and nodal/organ MCL cells” value (MCL-RL cells; one week after beginning ibrutinib alone) was “more circulating MCL cells and fewer nodal/organ MCL cells”, the “tumor burden (bioluminescence)” value (MCL-RL cells; treatment from Day 7, CART19 2×10^6 cells, ibrutinib 125 mg/kg/day) was “modestly delayed tumor growth at early time points” and the IC50 (RL) was 0.01 µM.

B1: IL-7: exogenous recombinant human IL-7 (protein, UniProt P13232 26-177, looked up)
Interleukin-7: DCDIEGKDGKQYESVLMVSIDQLLDSMKEIGSNCLNNEFNFFKRHICDANKEGMFLFRAARKLRQFLKMNSTGDFDLHLLKVSEGTTILLNCTGQVKGRKPAALGEAQPTKSLEENKSLKEQKKLNDLCFLKRLLQEIKTCWNKILMGTKEH
With B1 the “reduction in tumor burden” value [2] was 1-3 log.
